The text below walks through data of ChEMBL document CHEMBL3763148, “Synthesis, structure elucidation, DNA-PK and PI3K and anti-cancer activity of 8- and 6-aryl-substituted-1-3-benzoxazines” (Eur J Med Chem, 2016).

The target of test [1] is T1, Phosphatidylinositol 4,5-bisphosphate 3-kinase catalytic subunit alpha isoform (Homo sapiens, UniProt P42336). Description: Inhibition of PI3Kalpha (unknown origin) incubated for 60 mins by kinase-glo luminescence assay. A general note: In Kinase-Glo more light means more ATP remaining.
Test [2] concerns M14. The test can be described thus: Cytotoxicity against human M14 cells assessed as cell growth inhibition at 10 uM after 48 hrs by SRB assay relative to control. The settings on record: M14, 48 h, read-out: GI. It is filed as functional. (Sulforhodamine B stains cellular protein and so reports cell mass.)
A short description of test [3]: Cytotoxicity against human MOLT4 cells assessed as cell growth inhibition at 10 uM after 48 hrs by SRB assay relative to control. It is filed as functional. The settings on record: MOLT-4, 48 h, read-out: GI.
Test [4] addresses T2, Phosphatidylinositol 4,5-bisphosphate 3-kinase catalytic subunit beta isoform (Homo sapiens, UniProt P42338). The test can be described thus: Inhibition of PI3Kbeta (unknown origin) incubated for 60 mins by kinase-glo luminescence assay.
Target sequence in this assay (P42338 whole entry, canonical isoform): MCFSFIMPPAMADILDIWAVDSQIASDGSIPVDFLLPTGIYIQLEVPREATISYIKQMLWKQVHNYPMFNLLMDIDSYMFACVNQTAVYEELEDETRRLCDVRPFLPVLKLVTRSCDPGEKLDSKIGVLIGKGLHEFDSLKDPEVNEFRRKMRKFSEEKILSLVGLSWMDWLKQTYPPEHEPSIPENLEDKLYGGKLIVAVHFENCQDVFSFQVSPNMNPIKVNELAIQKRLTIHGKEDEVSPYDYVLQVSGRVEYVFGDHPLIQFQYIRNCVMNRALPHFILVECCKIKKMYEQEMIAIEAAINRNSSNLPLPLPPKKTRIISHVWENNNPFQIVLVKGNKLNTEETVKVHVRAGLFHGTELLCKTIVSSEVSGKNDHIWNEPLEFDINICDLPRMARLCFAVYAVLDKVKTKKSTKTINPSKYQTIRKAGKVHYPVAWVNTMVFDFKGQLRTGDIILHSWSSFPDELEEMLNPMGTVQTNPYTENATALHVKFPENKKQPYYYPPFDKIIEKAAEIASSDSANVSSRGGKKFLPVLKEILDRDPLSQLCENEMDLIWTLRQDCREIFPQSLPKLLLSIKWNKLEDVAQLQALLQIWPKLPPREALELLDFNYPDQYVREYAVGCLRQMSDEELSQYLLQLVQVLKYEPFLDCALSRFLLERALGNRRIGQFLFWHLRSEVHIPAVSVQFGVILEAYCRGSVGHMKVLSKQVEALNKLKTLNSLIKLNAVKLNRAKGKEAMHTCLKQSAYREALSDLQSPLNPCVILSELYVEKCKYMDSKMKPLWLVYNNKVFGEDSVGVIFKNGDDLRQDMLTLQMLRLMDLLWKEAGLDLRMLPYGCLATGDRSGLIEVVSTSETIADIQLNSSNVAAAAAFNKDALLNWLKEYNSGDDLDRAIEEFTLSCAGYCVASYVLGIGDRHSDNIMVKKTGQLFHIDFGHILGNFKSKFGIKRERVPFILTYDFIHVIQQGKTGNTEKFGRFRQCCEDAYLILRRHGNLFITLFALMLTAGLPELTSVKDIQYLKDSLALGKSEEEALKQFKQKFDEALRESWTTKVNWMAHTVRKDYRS
The target of test [5] is T3, Phosphatidylinositol 4,5-bisphosphate 3-kinase catalytic subunit delta isoform (Homo sapiens) (UniProt O00329).
T3 sequence (whole entry): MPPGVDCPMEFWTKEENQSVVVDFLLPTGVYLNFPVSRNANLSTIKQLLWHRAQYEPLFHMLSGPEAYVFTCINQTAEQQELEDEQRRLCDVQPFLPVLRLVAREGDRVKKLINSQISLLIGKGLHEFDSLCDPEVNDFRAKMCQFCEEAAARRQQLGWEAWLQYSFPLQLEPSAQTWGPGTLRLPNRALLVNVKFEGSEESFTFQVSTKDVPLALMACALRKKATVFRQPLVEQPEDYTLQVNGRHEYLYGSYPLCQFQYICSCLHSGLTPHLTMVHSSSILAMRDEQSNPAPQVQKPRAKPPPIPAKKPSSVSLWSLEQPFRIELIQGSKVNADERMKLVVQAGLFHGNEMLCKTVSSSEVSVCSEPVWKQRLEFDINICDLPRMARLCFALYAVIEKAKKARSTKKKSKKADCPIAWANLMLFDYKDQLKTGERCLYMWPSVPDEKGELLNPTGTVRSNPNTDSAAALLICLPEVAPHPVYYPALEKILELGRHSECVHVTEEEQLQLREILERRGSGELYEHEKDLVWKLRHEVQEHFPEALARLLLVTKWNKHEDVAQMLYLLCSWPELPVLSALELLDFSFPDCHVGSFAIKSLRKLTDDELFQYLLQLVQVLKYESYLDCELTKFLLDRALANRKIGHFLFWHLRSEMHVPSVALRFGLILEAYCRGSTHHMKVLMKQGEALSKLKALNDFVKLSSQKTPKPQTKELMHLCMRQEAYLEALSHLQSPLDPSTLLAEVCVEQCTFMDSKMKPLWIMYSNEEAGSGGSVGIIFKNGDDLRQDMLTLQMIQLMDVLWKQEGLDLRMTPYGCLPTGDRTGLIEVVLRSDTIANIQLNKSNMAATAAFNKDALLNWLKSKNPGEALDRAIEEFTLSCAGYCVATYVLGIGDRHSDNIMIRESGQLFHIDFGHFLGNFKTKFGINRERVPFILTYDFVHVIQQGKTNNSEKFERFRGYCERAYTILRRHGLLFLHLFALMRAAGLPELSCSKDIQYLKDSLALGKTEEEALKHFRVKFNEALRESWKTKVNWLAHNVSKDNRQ
The test can be described thus: Inhibition of PI3Kdelta (unknown origin) at 10 uM incubated for 60 mins by kinase-glo luminescence assay.

Test [6] concerns the target T1, Phosphatidylinositol 4,5-bisphosphate 3-kinase catalytic subunit alpha isoform. The test can be described thus: Inhibition of PI3Kalpha (unknown origin) at 10 uM incubated for 60 mins by kinase-glo luminescence assay.
The target in test [7] is DNA-dependent protein kinase catalytic subunit (Homo sapiens, UniProt P78527). The test can be described thus: Inhibition of human DNA-PK using EPPLSQEAFADLWKK as substrate at 10 uM by HTRF assay. On the technique in general: Time-resolved FRET reads energy transfer from a long-lived donor to a nearby acceptor.
Test [8] has as its target T2, Phosphatidylinositol 4,5-bisphosphate 3-kinase catalytic subunit beta isoform. The test can be described thus: Inhibition of PI3Kbeta (unknown origin) at 10 uM incubated for 60 mins by kinase-glo luminescence assay.
Target sequence in this assay (P42338 whole entry, looked up, canonical isoform): as the sequence (P42338 whole entry, canonical isoform) above
For test [9], the species on record is Homo sapiens. The test can be described thus: Selectivity ratio of IC50 for PI3Kbeta (unknown origin) to IC50 for human DNA-PK.

By IC50 is commonly meant the point on the concentration scale where inhibition reaches its midpoint. High values mean a need for much substance, low ones inhibition by little substance. A word on the inhibition: it is the relative decrease from the control value, in per cent.

T1 sequence (P42336 whole entry, canonical isoform): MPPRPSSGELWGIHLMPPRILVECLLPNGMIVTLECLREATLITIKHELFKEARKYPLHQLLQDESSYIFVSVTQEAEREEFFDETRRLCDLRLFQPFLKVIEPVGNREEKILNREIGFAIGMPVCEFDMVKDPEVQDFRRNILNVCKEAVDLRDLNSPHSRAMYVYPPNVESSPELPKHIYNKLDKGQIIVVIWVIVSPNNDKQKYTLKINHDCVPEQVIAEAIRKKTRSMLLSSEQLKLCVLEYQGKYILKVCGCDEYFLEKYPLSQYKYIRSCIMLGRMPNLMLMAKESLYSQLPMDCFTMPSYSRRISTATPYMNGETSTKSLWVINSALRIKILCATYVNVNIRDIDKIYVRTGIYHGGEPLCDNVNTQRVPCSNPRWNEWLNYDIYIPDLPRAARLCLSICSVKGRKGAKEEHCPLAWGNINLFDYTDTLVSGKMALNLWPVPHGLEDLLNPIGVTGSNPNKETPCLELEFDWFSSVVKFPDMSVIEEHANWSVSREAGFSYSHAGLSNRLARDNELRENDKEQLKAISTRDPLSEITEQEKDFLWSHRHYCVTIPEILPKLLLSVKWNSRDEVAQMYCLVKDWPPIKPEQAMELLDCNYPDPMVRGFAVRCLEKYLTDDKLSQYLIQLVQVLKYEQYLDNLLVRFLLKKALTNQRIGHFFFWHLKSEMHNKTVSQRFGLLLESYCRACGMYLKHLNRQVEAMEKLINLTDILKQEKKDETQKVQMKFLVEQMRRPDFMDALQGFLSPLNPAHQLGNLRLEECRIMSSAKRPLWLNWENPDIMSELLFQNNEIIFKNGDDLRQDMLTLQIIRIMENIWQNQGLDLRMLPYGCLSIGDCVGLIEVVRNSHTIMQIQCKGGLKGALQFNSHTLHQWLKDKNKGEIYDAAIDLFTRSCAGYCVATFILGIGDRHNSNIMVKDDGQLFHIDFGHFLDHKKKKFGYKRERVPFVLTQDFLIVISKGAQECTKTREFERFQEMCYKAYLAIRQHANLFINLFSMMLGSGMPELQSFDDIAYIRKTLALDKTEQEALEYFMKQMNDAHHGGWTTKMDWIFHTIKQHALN

For the compound `O=c1nc(N2CCOCC2)oc2c(-c3ccsc3)cccc12`, the values for the half-inhibitory concentration (IC50) in [1] and in test [4] were 3 µM and 3.4 µM, respectively. The inhibition of growth at 10 µM is 3.28% in test [2] and 9.6% in test [3].

As for `O=c1nc(N2CCOCC2)oc2ccc(-c3cccc4c3sc3ccccc34)cc12`, the inhibition in [5] was determined as 0%; in test [6], 0%; in [7], 8%; in [8], 21%. In addition, the values for the inhibition of growth at 10 µM in test [2] and in [3] were 2.99% and -8.92%, respectively.

`NC(=O)c1ccc(-c2cccc3c(=O)nc(N4CCOCC4)oc23)cc1` had a half-inhibitory concentration (IC50) in test [1] above 10 µM. For the same compound, the inhibition of growth at 10 µM is 2.25% in test [2] and -2.82% in [3]. In test [8], this compound showed an inhibition of 13%.

With `O=c1nc(N2CCOCC2)oc2c(-c3cccc4c3sc3ccccc34)cccc12`, in test [9], the Ratio IC50 came to 170. For the same compound, the inhibition in [6] amounted to 25%. Besides, the inhibition of growth at 10 µM in [2] was 3.09%; in test [3], 10.4%. In addition, the concentration for half-maximal inhibition (IC50) in test [4] was found to be 5.8 µM.

In test [1], `COc1ccc(-c2cccc3c(=O)nc(N4CCOCC4)oc23)cc1` came in with a half-inhibitory concentration (IC50) of 2.8 µM. Also, the values for the inhibition of growth at 10 µM in test [2] and in test [3] were -0.43% and 1.48%, respectively. This compound showed an inhibition in test [8] of 22%.

With `O=c1nc(N2CCOCC2)oc2c(-c3cccc4c3oc3ccccc34)cccc12`, the inhibition in test [6] is 26%. Also, the inhibition of growth at 10 µM was -2.42% in test [2] and 4.2% in [3]. Further, the IC50 in [4] was 6.9 µM.

As to `O=c1nc(N2CCOCC2)oc2c(-c3cccc4ccccc34)cccc12`, the Ratio IC50 in [9] stood at 8. The compound further gave an inhibition in test [6] of 34%. The figures for the inhibition of growth at 10 µM in [2] and in [3] were 6.76% and 6.92%, respectively. Further, in [4], the IC50 came to 5 µM.

Compound `O=c1nc(N2CCOCC2)oc2c(-c3cccs3)cccc12` registered a half-maximal inhibitory concentration (IC50) in [1] of 3.3 µM. Also, the inhibition of growth at 10 µM in test [2] is 0.86%; in test [3], -0.6%. The compound further gave an inhibition in [8] of 43%.
